Test results reported in patent US8101634B2, “Bicyclic compounds and use as antidiabetics” (GlaxoSmithKline LLC, priority 2006, dated 2012).

Assays:
C57BI6/J mice = assay: Oral glucose tolerance test (OGTT) in normal mice one hour after oral administration; type: in vivo; settings: for glucose area-under-the curve (AUC) over the 120 minute time course, result in words: OGTT in mice, vs vehicle; for % of Vehicle (glucose cAUC): OGTT one hour after p.o. dosing; for % of Vehicle (glucose cAUC) / Glucose cAUC (baseline corrected glucose area under the curve during OGTT): Examples 30 mg/kg, vildagliptin 10 mg/kg, n=10; for Glucose cAUC (baseline corrected glucose area under the curve during OGTT): fasted male C57BI6/J mice, OGTT 2 g dextrose/kg one hour after p.o. dosing, mean ± s.e.m., 120 min
Protocol: In Vivo Effects of GPR119 Agonists on Incretin Hormone Release and Glucose Homeostasis in Mice
Vehicle or compounds were delivered orally via a gavage needle (p.o. at 10 mls/kg). The effect of the GPR119 agonists on glucose homeostasis was assessed by conducting an oral glucose tolerance test (OGTT; 2 g dextrose per kg body weight) one hour after administration of vehicle or test compounds. Whole blood glucose levels were determined prior to compound administration, immediately before and 10, 20, 30, 45, 60, 90 and 120 after glucose administration, using a Glucometer (Freestyle, Therasense).
Table 1 summarizes the glucose excursions during the OGTT as the average baseline corrected glucose area under the curve (cAUC; ±s.e.m.) from the animals in each treatment group.

C57/BI6 mice = assay: Plasma total GLP-1 and total GIP in normal mice one hour after oral administration; type: in vivo; settings: for total circulating GIP levels, result in words / total circulating GLP-1 levels, result in words: 1 hr after giving the compound, compared to vehicle; for Total GIP (plasma) / Total GLP-1 (plasma) / Total GIP, fold change vs. Vehicle / Total GLP-1, fold change vs. Vehicle: C56BI6/J mice, one hour following oral administration of 30 mg/kg; for Total GIP (plasma) / Total GLP-1 (plasma): fasted, mean ± s.e.m.
Protocol: GPR119 Agonists Elevate GIP and GLP-1 in Normal Mice
Male C57/BI6 mice 10 weeks of age were fasted for 15 hrs and randomly grouped (n=6-10) to receive vehicle (0.5% HPMC/0.1% Tween) or a GPR119 agonists of the present invention at 30 mg/kg. 1 hr after compound administration blood was collected by cardiac-stick following iso-fluorane aneasthesia. Blood for analysis of plasma levels of total GLP-1 and total GIP was placed in a K2-EDTA containing tubes supplemented with a DPP-IV inhibitor to prevent degradation of the incretin hormones (30 µM final concentration). Total GLP-1 was determined using an assay from Meso Scale Discovery (Gaithersburg, Md.). GIP was determined using an ELISA assay from Linco (St. Charles, Mo.). For each treatment group Table 2 summarizes the average plasma levels of total GLP-1 (±s.e.m.) from the number of animals in each treatment group as indicated.
Table 3 summarizes the average plasma levels of total GIP (±s.e.m.) from the number of animals in each treatment group as indicated.

SMILES	glucose area-under-the curve (AUC) over the 120 minute time course, result in words (C57BI6/J mice)	% of Vehicle (glucose cAUC) (C57BI6/J mice)	Glucose cAUC (baseline corrected glucose area under the curve during OGTT) (C57BI6/J mice)	total circulating GIP levels, result in words (C57/BI6 mice)	total circulating GLP-1 levels, result in words (C57/BI6 mice)	Total GIP (plasma) (C57/BI6 mice)	Total GLP-1 (plasma) (C57/BI6 mice)	Total GIP, fold change vs. Vehicle (C57/BI6 mice)	Total GLP-1, fold change vs. Vehicle (C57/BI6 mice)
CC(C)OC(=O)N1CCC(COc2ccc(-c3ccc(S(C)(=O)=O)cc3F)nc2)CC1 [Example 77, 1-Methylethyl 4-[({6-[2-fluoro-4-(methylsulfonyl)phenyl]-3-pyridinyl}oxy)methyl]-1-piperidinecarboxylate]	significantly lowered	21%	6884 ± 694 mg·min/dL	increase	increase	182 ± 12 pg/mL	7.5 ± 2.0 pg/mL	2.2	3.3
CC(C)c1noc(N2CCC(COc3ccc(-c4ccc(S(C)(=O)=O)cc4F)nc3)CC2)n1 [Example 83, 2-[2-Fluoro-4-(methylsulfonyl)phenyl]-5-[({1-[3-(1-methylethyl)-1,2,4-oxadiazol-5-yl]-4-piperidinyl}methyl)oxy]pyridine]	significantly lowered	23%	6754 ± 286 mg·min/dL	increase	increase	275 ± 29 pg/mL	6.8 ± 1.8 pg/mL	3.3	3.0
